Patent US20210348086A1, “COMPOSITION” (Conopco Inc., d/b/a UNILEVER, priority 2018, published 2021)

Tested on: bacterial pool: Burkholderia cepacia, Pseudomonas aeruginosa, Psuedomonas putida, Acinetobacter lwoffii
Assay: Modified preservative challenge test (Ph. Eur. 5.1.3) in laundry liquid, Total Viable Count pour plate
Type: cell-based
Settings: for Preservation of a laundry liquid composition (result in words): summary of the challenge test data set
Method: A modified challenge that complies with the current European Pharmacopoeia (Ph. Eur. Or EP) 5.1.3 criteria was performed on a subsample of both the unpreserved and each dosed product. The bacterial pool was added to each sample container at a ratio of 1:100. The final concentration of inoculum in the product should be between 5×10^5 and 5×10^6 CFU/G of test product. Each product is mixed with a sterile spatula to ensure a homogenous distribution of the inocula throughout the product. [table] Both the inoculum level and the level of microorganism within each sample was quantified using a Total Viable Count (TVC) pour plate method at 7, 14, 21 and 28 days. A 1:10 dilution was made with a subsample of each product, performed separately in Peptone (0.1%)/tween 80 (2%) neutralising agent. A 1:10 and 1:100 dilution of each subsample was performed and pour plates produced at each dilution using tryptone soya agar. Plates were incubated at 28° C. for 48 hours and then examined for growth. Visible colonies were counted with the aid of a Quebec Colony Counter and recorded for analysis against the challenge test criteria. During the removal of a subsample of product for TVC, a re-inoculation is performed at 7 and 14 days, reintroducing 5×10^6 CFU/G of bacteria before mixing using a sterile spatula to homogenise the re-inoculation.

[1] = 0.5% in Example 1 laundry liquid, 7 days
[2] = 0.5% in Example 1 laundry liquid, 14 days, re-inoculated at 7 days
[3] = 0.5% in Example 1 laundry liquid, 21 days, re-inoculated at 7 and 14 days
[4] = 0.5% in Example 1 laundry liquid, 28 days, re-inoculated at 7 and 14 days
[5] = 1.0% in Example 1 laundry liquid, 7 days
[6] = 1.0% in Example 1 laundry liquid, 14 days, re-inoculated at 7 days
[7] = 1.0% in Example 1 laundry liquid, 21 days, re-inoculated at 7 and 14 days
[8] = 1.0% in Example 1 laundry liquid, 28 days, re-inoculated at 7 and 14 days

SMILES | Microbial Log reduction [1] | Microbial Log reduction [2] | Microbial Log reduction [3] | Microbial Log reduction [4] | Microbial Log reduction [5] | Microbial Log reduction [6] | Microbial Log reduction [7] | Microbial Log reduction [8] | Preservation of a laundry liquid composition (result in words)
O=C(O)CC(O)(CC(=O)O)C(=O)O [Citric acid] | >5.59 | <2.54 | <2.56 | <2.56 | >5.59 | >5.54 | >5.56 | >5.56 | not capable of effectively preserving a laundry liquid composition
C=C(CC(=O)O)C(=O)O [Itaconic acid] | >5.59 | >5.54 | >5.56 | >5.56 | >5.59 | >5.54 | >5.56 | >5.56 | effective preservative
CC(O)C(=O)O (stereo not drawn) [Lactic acid] | >5.59 | 2.32 | <2.56 | <2.56 | >5.59 | >5.54 | >5.56 | >5.56 | not capable of effectively preserving a laundry liquid composition
